Reference: patent US12115166B2, “Corticotropin releasing factor receptor antagonists” (Spruce Biosciences, Inc., priority 2017, dated 2024)

What was measured:
[1] = Study 1: single-escalating oral dose pharmacokinetics in healthy adult subjects (fed, and 150 mg fasted); assay type: in vivo, human; details: 50 to 800 mg, fed state; formal test inconclusive
Protocol: Study 1 was the first-in-human study that investigated the safety, tolerability, and PK of single-escalating doses of Compound 1, given orally, to healthy adult subjects. […] The data from this study were used for the selection of doses for Study 2.
In Study 1, Compound 1 was administered to healthy adult subjects as a single PO dose of 2, 10, 50, 150, 400, or 800 mg in the fed state and 150 mg in the fasted state. Absorption occurred moderately late, achieving peak Cmax between 4 to 6 hours following dosing in the fed state.
When Compound 1 was given in the fed state, median time to reach maximum plasma concentration (Tmax) occurred between 4 and 6 hours.
As part of this single-dose escalation study, a food effect PK investigation was performed to examine Compound 1 exposures in both the fed and fasted states at the 150-mg dose level. A total of 6 subjects were administered 150 mg Compound 1 in each of these 2 dosing groups. Of these 6 subjects, 4 subjects received Compound 1 at the same dose in both fed and fasted states. […] Table 6 provides a summary of the PK parameters at the 150-mg dose level under both fed and fasted state conditions.
PK parameters AUC0-∞ and Cmax were analyzed separately for dose proportionality for Compound 1 from 50 to 800 mg when administered in the fed state. […]

CRF1 receptor = target: T1, CRF1 receptor (Homo sapiens, UniProt P34998); test: Phase 2 study in adults with classic CAH: hormone response (ACTH, 17-OHP, androstenedione); assay type: in vivo; details: CAH patients
T1 construct: from tissue; host or cells: living human patients
T1 sequence (P34998 24-415): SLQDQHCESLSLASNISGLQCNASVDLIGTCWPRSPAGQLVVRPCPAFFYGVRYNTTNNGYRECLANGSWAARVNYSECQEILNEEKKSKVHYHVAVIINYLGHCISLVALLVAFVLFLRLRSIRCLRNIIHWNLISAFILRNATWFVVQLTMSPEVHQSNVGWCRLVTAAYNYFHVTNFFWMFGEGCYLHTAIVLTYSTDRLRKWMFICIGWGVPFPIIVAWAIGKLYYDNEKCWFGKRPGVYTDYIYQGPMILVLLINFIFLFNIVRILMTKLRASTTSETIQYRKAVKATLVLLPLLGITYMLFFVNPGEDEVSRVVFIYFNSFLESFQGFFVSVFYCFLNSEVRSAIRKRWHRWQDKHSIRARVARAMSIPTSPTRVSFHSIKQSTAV
Text: Cohort A of the Phase 2 Study includes a 6-week, multiple-dose, dose escalation study of Compound 1 for the treatment of adults with classic CAH. After screening, eligible patients will be enrolled into a 6-week treatment period followed by a 4-week washout/safety follow-up period.
This cohort will be conducted in approximately 9 patients, who will receive Compound 1 daily for up to 6 weeks. Compound 1 will be administered as an oral daily dose. Patients will undergo titration of Compound 1 through three escalating dosage strengths at 2-week intervals. […]
Patients in Cohort B will receive study drug at 200 mg BID, with a dose in the morning and a dose in the evening, either with a meal or consumption of a standardized snack. For Cohorts C and D, the dose level and the frequency and timing of dosing will be determined based on interim data from the previous cohorts. […]
Outcome Measures Primary Outcome Measure: • 1. […] To assess the efficacy of Compound 1 in subjects with classic CAH as measured by percent and absolute change in 17-OHP compared to baseline. […] To explore the dose(s) of Compound 1 that cause pharmacodynamics changes in plasma concentrations of ACTH, androstenedione, and testosterone, as measured by the absolute and percent change from baseline by dose. • 4. […]

With `CCC(CC)c1cc(C)nc2c(-c3sc(N4CCOCC4)nc3Cl)c(C)nn12` [Compound 1, 3-(4-Chloro-2-(morpholin-4-yl)thiazol-5-yl)-7-(1-ethylpropyl)-2,5-dimethylpyrazolo(1,5-a)pyrimidine] the “dose proportionality of Cmax” value [1] was “more than dose proportional” and the “morning rise in A4” value (CRF1 receptor) was “attenuates”.
